For eleven compounds, IC50 results are on record in patent US20240150334A1, “HSD17B13 INHIBITORS AND/OR DEGRADERS” (Pfizer Inc., priority 2022, published 2024).

SMILES strings stand for the structures. Structures can show the parent of a compound that is named as a salt.

The target of one assay is HSD17B13 enzyme (Homo sapiens (Human), UniProt Q7Z5P4). In words: hHSD17B13 IC50 Assay (FAC beta-estradiol), purified protein enzyme activity assay with NAD(P)H-Glo luciferase readout. Type of assay: biochemical. As to conditions: geometric mean, 12 μM FAC beta-estradiol, 500 μM NAD+, read-out: hHSD17B13_IC50 GMean IC50. How it is done:
The following protocols may of course be varied by those skilled in the art. hHSD17B13 IC50 Assay (FAC beta-estradiol)
HSD17B13 enzyme inhibition potency of test compounds was determined using a purified protein biochemical enzyme activity assay, using NAD(P)H-Glo luciferase readout (Promega). HSD17B13 enzyme uses the oxidized form of nicotinamide adenine dinucleotide (NAD+) as a cofactor during metabolism of Beta-Estradiol (substrate) to […], while converting NAD+ to the reduced form (NADH). The Promega NAD(P)H-Glo™ assay is a homogeneous bioluminescent assay that generates a light signal from biochemical reactions that contain NADH (or nicotinamide adenine dinucleotide phosphate, NADPH). In the presence of NADH (or NADPH), the enzyme Reductase reduces a proluciferin reductase substrate to form luciferin. Luciferin then is quantified using Ultra-Glo™ Recombinant Luciferase (rLuciferase), and the light signal produced is proportional to the amount of NAD(P)H in the sample. […] The reaction was initiated by the addition of 2 μL/well purified HSD17B13 protein (30 nM FAC in assay buffer). Compound, substrate mix and HSD17B13 protein was incubated in the dark at room temperature for 2 hours before the addition of 3 μL/well NAD(P)H-Glo detection reagent, prepared from luciferase detection reagent and reductase/reductase substrate, as per manufacturer's instructions (Promega, G9061). Detection reagent was incubated in the dark for 1 hour at room temperature before plates were read on the Envision plate reader (Perkin Elmer) using a luminescent protocol. Data expressed as relative luminescent units (RLUs) were then normalized to control wells using Activity Base (IDBS). Zero percent effect (ZPE) was defined as RLUs generated from uninhibited HSD17B13 protein (vehicle control).

For a further assay, the target named is wild type human HSD17B13 (Homo sapiens (Human), UniProt Q7Z5P4). In words: HEK_Beta-Est LCMS_IC50_Tekcel, whole-cell HEK-HSD17B13 inhibition assay, estrone production by LCMS. Type of assay: cell-based. Particulars: geometric mean, HEK cells stably expressing wild type human HSD17B13, 25 μM FAC beta-estradiol, read-out: HEK_Beta-Est LCMS_IC50—Tekcel GMean IC50. The essentials:
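Readout was LCMS quantitation of estrone made from beta-estradiol with NAD+ as cofactor. Whole HEK-HSD17B13 cells were given compound for 1 hour, then the reaction for 2 hours, both at 37° C. Product area ratios were normalized to vehicle controls as zero percent effect.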

Sequence of HSD17B13 enzyme (Q7Z5P4 20-300): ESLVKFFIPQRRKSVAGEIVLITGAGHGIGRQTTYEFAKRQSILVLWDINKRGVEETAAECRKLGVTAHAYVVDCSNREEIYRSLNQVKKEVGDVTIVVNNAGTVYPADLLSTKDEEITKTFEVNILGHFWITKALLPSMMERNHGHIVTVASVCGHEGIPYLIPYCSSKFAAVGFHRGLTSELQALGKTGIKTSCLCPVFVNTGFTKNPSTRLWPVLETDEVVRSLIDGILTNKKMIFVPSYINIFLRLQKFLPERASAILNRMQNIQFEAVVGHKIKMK
Sequence of wild type human HSD17B13 (Q7Z5P4 20-300): as above

For the compound `O=C(NC[C@]12CC[C@](c3nc(-c4ccc(C(F)(F)F)nn4)no3)(CC1)CC2)c1cc(F)c(O)c(F)c1F` [Example 184, 2,3,5-trifluoro-4-hydroxy-N-[(4-{3-[6-(trifluoromethyl)pyridazin-3-yl]-1,2,4-oxadiazol-5-yl}bicyclo[2.2.2]octan-1-yl)methyl]benzamide], the IC50 on HSD17B13 enzyme came to 5.5 nM; at wild type human HSD17B13, 220 nM.
Taken in the same sequence, the figures for `O=C(NC[C@H]1CC[C@H](n2cc3cc(F)ccc3n2)CC1)c1cc(F)c(O)c(F)c1` [Example 133, 3,5-difluoro-N-{[(1r,4r)-4-(5-fluoro-2H-indazol-2-yl)cyclohexyl]methyl}-4-hydroxybenzamide, ammonium salt] were 29 nM and 280 nM.
In the same order, the values of `O=C(NC[C@]12CC[C@](c3nc(-c4ccc(C(F)(F)F)nc4)no3)(CC1)CC2)c1cc(F)c(O)c(F)c1` [Example 140, 3,5-difluoro-4-hydroxy-N-[(4-{3-[6-(trifluoromethyl)pyridin-3-yl]-1,2,4-oxadiazol-5-yl}bicyclo[2.2.2]octan-1-yl)methyl] benzamide] are 16 nM and 220 nM.
Taken in the same sequence, the figures for `O=C(NC[C@H]1CC[C@H](n2cc3ccc(-c4cnn(C(F)F)c4)cc3n2)CC1)c1cc(F)c(O)c(F)c1` [Example 44, N-{[(1r,4r)-4-{6-[1-(difluoromethyl)-1H-pyrazol-4-yl]-2H-indazol-2-yl}cyclohexyl]methyl}-3,5-difluoro-4-hydroxybenzamide] were less than 2.6 nM and 92 nM.
On to `CS(=O)(=O)c1ccc(-c2noc([C@H]3CC[C@H](CNC(=O)c4cc(F)c(O)c(F)c4)CC3)n2)cc1` [Example 128, 3,5-difluoro-4-hydroxy-N-{[(1r,4r)-4-{3-[4-(methanesulfonyl)phenyl]-1,2,4-oxadiazol-5-yl}cyclohexyl]methyl} benzamide], for which the values for the half-inhibitory concentration (IC50) on HSD17B13 enzyme and on wild type human HSD17B13 were 16 nM and 400 nM, respectively.
In the same order, the values of `Cc1ccc(-c2noc([C@H]3CC[C@H](CNC(=O)c4cc(F)c(O)c(F)c4F)CC3)n2)nn1` [Example 212, 2,3,5-trifluoro-4-hydroxy-N-({(1r,4r)-4-[3-(6-methylpyridazin-3-yl)-1,2,4-oxadiazol-5-yl]cyclohexyl}methyl) benzamide] are 26 nM and 2300 nM.
Taken in the same sequence, the figures for `O=C(NC[C@H]1CC[C@H](n2cc3ccc(-c4cnn(C5COC5)c4)cc3n2)CC1)c1cc(F)c(O)c(F)c1` [Example 45, 3,5-difluoro-4-hydroxy-N-{[(1r,4r)-4-{6-[1-(oxetan-3-yl)-1H-pyrazol-4-yl]-2H-indazol-2-yl}cyclohexyl]methyl} benzamide] were 5.4 nM and 220 nM.
In the same order, the values of `O=C(NC[C@H]1CC[C@H](n2cc3ccc(-c4cnn5c4OCC5)cc3n2)CC1)c1cc(F)c(O)c(F)c1` [Example 37, N-({(1r,4r)-4-[6-(2,3-dihydropyrazolo[5,1-b][1,3]oxazol-7-yl)-2H-indazol-2-yl]cyclohexyl}methyl)-3,5-difluoro-4-hydroxybenzamide] are 8.4 nM and 150 nM.
Regarding `Cc1noc([C@H]2CC[C@H](CNC(=O)c3ccc(O)c(F)c3)CC2)n1` [Example 214, 3-fluoro-4-hydroxy-N-{[(1r,4r)-4-(3-methyl-1,2,4-oxadiazol-5-yl)cyclohexyl]methyl} benzamide], at HSD17B13 enzyme, the half-maximal inhibitory concentration (IC50) stood at 290 nM.
As to `COc1ccc2cn([C@H]3CC[C@H](CNC(=O)c4cc(F)c(O)c(F)c4)CC3)nc2c1` [Example 23, 3,5-difluoro-4-hydroxy-N-{[(1r,4r)-4-(6-methoxy-2H-indazol-2-yl)cyclohexyl]methyl} benzamide], the half-maximal inhibitory concentration (IC50) on HSD17B13 enzyme was found to be 20 nM.
Consider `Cc1noc([C@H]2CC[C@H](CNC(=O)c3cc(F)c(O)c(F)c3)CC2)n1` [Example 213, 3,5-difluoro-4-hydroxy-N-{[(1r,4r)-4-(3-methyl-1,2,4-oxadiazol-5-yl)cyclohexyl]methyl}benzamide], for which the half-maximal inhibitory concentration (IC50) on HSD17B13 enzyme turned out to be 64 nM.

One may read the IC50 as the concentration at which inhibition is half-maximal.
